Drawing on patent US20230365553A1, “COMPOUNDS AND COMPOSITIONS FOR TREATING CONDITIONS ASSOCIATED WITH STING ACTIVITY” (IFM Due, Inc., priority 2020, published 2023), this text covers EC50 for 33 molecules.

The test deals with T1, STING (Homo sapiens, UniProt Q86WV6, G230A/H232R/R293Q/R71H).
T1 construct: host or cells: THP1-Dual KO-IFNAR2 cells
T1 sequence (Q86WV6 whole entry R71H/G230A/H232R/R293Q): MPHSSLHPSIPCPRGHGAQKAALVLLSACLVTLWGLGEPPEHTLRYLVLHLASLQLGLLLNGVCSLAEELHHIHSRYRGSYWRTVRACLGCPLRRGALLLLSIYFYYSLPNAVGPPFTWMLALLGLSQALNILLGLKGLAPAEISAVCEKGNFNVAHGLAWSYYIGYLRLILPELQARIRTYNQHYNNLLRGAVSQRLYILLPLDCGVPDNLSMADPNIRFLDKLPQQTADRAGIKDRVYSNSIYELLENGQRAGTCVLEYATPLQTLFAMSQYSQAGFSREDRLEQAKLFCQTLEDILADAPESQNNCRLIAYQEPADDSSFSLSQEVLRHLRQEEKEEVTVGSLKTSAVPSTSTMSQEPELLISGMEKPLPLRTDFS
The test is described as follows: STING reporter assay: luciferase reporter activity in THP1-Dual KO-IFNAR2 cells stimulated with 2′3′cGAMP. It is filed as cell-based. As to conditions: 15 μM 2′3′cGAMP, 24h, read-out: hSTING EC50. As for the experimental part:
STING pathway activation by the compounds described herein was measured using THP 1-Dual™ cells (KO-IFNAR2).
THP1-Dual™ KO-IFNAR2 Cells (obtained from invivogen) were maintained in RPMI, 10% FCS, 5 ml P/S, 2 mM L-glut, 10 mM Hepes, and 1 mM sodium pyruvate. Compounds were spotted in empty 384 well tissue culture plates (Greiner 781182) by Echo for a final concentration of 0.0017-100 μM. Cells were plated into the TC plates at 40 μL per well, 2×10E6 cells/mL. For activation with STING ligand, 2′3′cGAMP (MW 718.38, obtained from Invivogen), was prepared in Optimem media.
The following solutions were prepared for each 1×384 plate: • Solution A: 2 mL Optimem with one of the following stimuli: • 60 μL of 10 mM 2′3′cGAMP→150 μM stock • Solution B: 2 mL Optimem with 60 μL Lipofectamine 2000→Incubate 5 min at RT
2 mL of solution A and 2 ml Solution B was mixed and incubated for 20 min at room temperature (RT). 20 μL of transfection solution (A+B) was added on top of the plated cells, with a final 2′3′cGAMP concentration of 15 μM. The plates were then centrifuged immediately at 340 g for 1 minute, after which they were incubated at 37° C., 5% CO2, >98% humidity for 24h. Luciferase reporter activity was then measured. EC50 values were calculated by using standard methods known in the art.
Luciferase reporter assay: 10 μL of supernatant from the assay was transferred to white 384-plate with flat bottom and squared wells. One pouch of QUANTI-Luc™ Plus was dissolved in 25 mL of water. 100 μL of QLC Stabilizer per 25 mL of QUANTI-Luc™ Plus solution was added. 50 μL of QUANTI-Luc™ Plus/QLC solution per well was then added. Luminescence was measured on a Platereader (e.g., Spectramax I3X (Molecular Devices GF3637001)).
Luciferase reporter activity was then measured. EC50 values were calculated by using standard methods known in the art.
For `CCC(=O)Nc1c[nH]c2ccc(-c3cnn(-c4ccc(C#N)cc4)c3)cc12` [Compound 101, N-(5-(1-(4-cyanophenyl)-1H-pyrazol-4-yl)-1H-indol-3-yl)propionamide], the EC50 was in the range of 200 to 1000 nM.

Consider `CCC(=O)Nc1c[nH]c2ccc(-c3cnn(-c4ccc(CC(F)(F)F)cc4)c3)cc12` [Compound 102, N-(5-(1-(4-(2,2,2-trifluoroethyl)phenyl)-1H-pyrazol-4-yl)-1H-indol-3-yl)propionamide], for which the EC50 lay in the range of 200 to 1000 nM.

As to `CCC(=O)Nc1c[nH]c2cc(F)c(-c3cnn(-c4ccc(CC)cc4)c3)cc12` [Compound 103, N-(5-(1-(4-ethylphenyl)-1H-pyrazol-4-yl)-6-fluoro-1H-indol-3-yl)propionamide], the EC50 is 200 to 1000 nM.

As for `CCC(=O)Nc1c[nH]c2ccc(-c3cnn(-c4ccc(COC)cc4)c3)cc12` [Compound 104, N-(5-(1-(4-(methoxymethyl)phenyl)-1H-pyrazol-4-yl)-1H-indol-3-yl)propionamide], the EC50 lay within 200 to 1000 nM.

Consider `CCC(=O)Nc1c[nH]c2ccc(-c3cnn(-c4ccc(C(F)(F)F)cn4)c3)cc12` [Compound 105, N-(5-(1-(5-(trifluoromethyl)pyridin-2-yl)-1H-pyrazol-4-yl)-1H-indol-3-yl)propionamide], for which the EC50 lay within 200 to 1000 nM.

As to `CCc1ccc(-n2cc(-c3ccc4[nH]cc(NC(=O)COC)c4c3)cn2)cc1` [Compound 106, N-(5-(1-(4-ethylphenyl)-1H-pyrazol-4-yl)-1H-indol-3-yl)-2-methoxyacetamide], the EC50 fell in the range of 40 to 200 nM.

With `CCc1ccc(-n2cc(-c3ccc4[nH]cc(NC(=O)CCC#N)c4c3)cn2)cc1` [Compound 107, 3-cyano-N-(5-(1-(4-ethylphenyl)-1H-pyrazol-4-yl)-1H-indol-3-yl)propanamide], the concentration for a half-maximal effect (EC50) was in the range of 200 to 1000 nM.

As to `CCc1ccc(-n2cc(-c3ccc4[nH]cc(NC(=O)C5CCN(C(=O)OC(C)(C)C)C5)c4c3)cn2)cc1` (stereo not drawn) [Compound 108, tert-butyl 3-((5-(1-(4-ethylphenyl)-1H-pyrazol-4-yl)-1H-indol-3-yl)carbamoyl)pyrrolidine-1-carboxylate], the EC50 lay in the range of 200 to 1000 nM.

For `CCC(=O)Nc1c[nH]c2ccc(-c3cnn(-c4ccc(C(F)(F)F)c(C)c4)c3)cc12` [Compound 109, N-(5-(1-(3-methyl-4-(trifluoromethyl)phenyl)-1H-pyrazol-4-yl)-1H-indol-3-yl)propionamide], the EC50 fell in the range of 200 to 1000 nM.

On to `CCC(=O)Nc1c[nH]c2ccc(-c3cnn(-c4ccc(OCC(F)(F)F)cc4)c3)cc12` [Compound 110, N-(5-(1-(4-(2,2,2-trifluoroethoxy)phenyl)-1H-pyrazol-4-yl)-1H-indol-3-yl)propionamide], for which the EC50 was 40 to 200 nM.

In the case of `O=C(Nc1c[nH]c2ccc(-c3cnn(-c4ccc(C(F)(F)F)cc4)c3)cc12)C1CCC1` [Compound 111, N-(5-(1-(4-(trifluoromethyl)phenyl)-1H-pyrazol-4-yl)-1H-indol-3-yl)cyclobutanecarboxamide], the EC50 was in the range of 200 to 1000 nM.

Turning to `CCc1ccc(-n2cc(-c3ccc4[nH]cc(NC(=O)C5COC5)c4c3)cn2)cc1` [Compound 112, N-(5-(1-(4-ethylphenyl)-1H-pyrazol-4-yl)-1H-indol-3-yl)oxetane-3-carboxamide], the EC50 was 200 to 1000 nM.

Take `CCc1ccc(-n2cc(-c3ccc4[nH]cc(NC(=O)CC(C)(C)O)c4c3)cn2)cc1` [Compound 113, N-(5-(1-(4-ethylphenyl)-1H-pyrazol-4-yl)-1H-indol-3-yl)-3-hydroxy-3-methylbutanamide]: the EC50 fell in the range of 40 to 200 nM.

Regarding `CCc1ccc(-n2cc(-c3ccc4[nH]cc(NC(=O)C(C)NC(=O)OC(C)(C)C)c4c3)cn2)cc1` (stereo not drawn) [Compound 114, tert-butyl (1-((5-(1-(4-ethylphenyl)-1H-pyrazol-4-yl)-1H-indol-3-yl)amino)-1-oxopropan-2-yl)carbamate], the EC50 is 200 to 1000 nM.

As for `CCc1ccc(-n2cc(-c3ccc4[nH]cc(NC(=O)C5CCCC5)c4c3)cn2)cc1` [Compound 115, N-(5-(1-(4-ethylphenyl)-1H-pyrazol-4-yl)-1H-indol-3-yl)cyclopentanecarboxamide], the EC50 is 40 to 200 nM.

For the molecule `CCC(=O)Nc1c[nH]c2ccc(-c3ccnn3-c3ccc(C(F)(F)F)cc3)cc12` [Compound 116, N-(5-(1-(4-(trifluoromethyl)phenyl)-1H-pyrazol-5-yl)-1H-indol-3-yl)propionamide], the EC50 was 5000 to 100000 nM.

In the case of `CCC(=O)Nc1c[nH]c2ccc(-c3ccn(-c4ccc(C(F)(F)F)cc4)n3)cc12` [Compound 117, N-(5-(1-(4-(trifluoromethyl)phenyl)-1H-pyrazol-3-yl)-1H-indol-3-yl)propionamide], the EC50 was 1000 to 5000 nM.

On to `CCC(=O)Nc1c[nH]c2ccc(-c3ccc(-c4cnn(C(C)C)c4)cc3)cc12` [Compound 118, N-(5-(4-(1-isopropyl-1H-pyrazol-4-yl)phenyl)-1H-indol-3-yl)propionamide], for which the EC50 was in the range of 1000 to 5000 nM.

As to `CCC(=O)Nc1c[nH]c2ccc(-c3cnn(-c4ccc(Cl)cc4)c3)cc12` [Compound 119, N-(5-(1-(4-chlorophenyl)-1H-pyrazol-4-yl)-1H-indol-3-yl)propionamide], the EC50 is 200 to 1000 nM.

`CCC(=O)Nc1c[nH]c2ccc(-c3cnn(-c4ccc(CC)nc4)c3)cc12` [Compound 120, N-(5-(1-(6-ethylpyridin-3-yl)-1H-pyrazol-4-yl)-1H-indol-3-yl)propionamide]: the EC50 lay within 1000 to 5000 nM.

On to `CCc1ccc(-n2cc(-c3ccc4[nH]cc(NC(=O)C5CC(=O)N5)c4c3)cn2)cc1` (stereo not drawn) [Compound 121, N-(5-(1-(4-ethylphenyl)-1H-pyrazol-4-yl)-1H-indol-3-yl)-4-oxoazetidine-2-carboxamide], for which the EC50 lay in the range of 200 to 1000 nM.

With `CCc1ccc(-n2cc(-c3ccc4[nH]cc(NC(=O)C5CCCO5)c4c3)cn2)cc1` (stereo not drawn) [Compound 122, N-(5-(1-(4-ethylphenyl)-1H-pyrazol-4-yl)-1H-indol-3-yl)tetrahydrofuran-2-carboxamide], the EC50 fell in the range of 200 to 1000 nM.

As to `CCc1ccc(-n2cc(-c3ccc4[nH]cc(NC(=O)C5CCCCC5)c4c3)cn2)cc1` [Compound 123, N-(5-(1-(4-ethylphenyl)-1H-pyrazol-4-yl)-1H-indol-3-yl)cyclohexanecarboxamide], the EC50 fell in the range of 40 to 200 nM.

Consider `CCc1ccc(-n2cc(-c3ccc4[nH]cc(NC(=O)C5CCC5)c4c3)cn2)cc1` [Compound 124, N-(5-(1-(4-ethylphenyl)-1H-pyrazol-4-yl)-1H-indol-3-yl)cyclobutanecarboxamide], for which the EC50 was 40 to 200 nM.

For the molecule `CCc1ccc(-n2cc(-c3ccc4[nH]cc(NC(=O)CN(C)C)c4c3)cn2)cc1` [Compound 125, 2-(dimethylamino)-N-(5-(1-(4-ethylphenyl)-1H-pyrazol-4-yl)-1H-indol-3-yl)acetamide], the EC50 lay in the range of 5000 to 100000 nM.

Take `CCc1ccc(-n2cc(-c3ccc4[nH]cc(NC(=O)CO)c4c3)cn2)cc1` [Compound 126, N-(5-(1-(4-ethylphenyl)-1H-pyrazol-4-yl)-1H-indol-3-yl)-2-hydroxyacetamide]: the EC50 lay in the range of 200 to 1000 nM.

For `CCC(=O)Nc1c[nH]c2ccc(-c3cnn(Cc4cccc(C(F)(F)F)c4)c3)cc12` [Compound 127, N-(5-(1-(3-(trifluoromethyl)benzyl)-1H-pyrazol-4-yl)-1H-indol-3-yl)propionamide], the EC50 was in the range of 200 to 1000 nM.

With `CCC(=O)Nc1c[nH]c2ccc(-c3cnn(-c4cccc(CC)c4)c3)cc12` [Compound 128, N-(5-(1-(3-ethylphenyl)-1H-pyrazol-4-yl)-1H-indol-3-yl)propionamide], the EC50 was in the range of 200 to 1000 nM.

For the molecule `CCc1ccc(-n2cc(-c3ccc4[nH]cc(NC(=O)C5CN(C)C5)c4c3)cn2)cc1` [Compound 129, N-(5-(1-(4-ethylphenyl)-1H-pyrazol-4-yl)-1H-indol-3-yl)-1-methylazetidine-3-carboxamide], the EC50 was 5000 to 100000 nM.

Consider `CCc1ccc(-n2cc(-c3ccc4[nH]cc(NC(=O)/C=C/COC)c4c3)cn2)cc1` [Compound 130, (E)-N-(5-(1-(4-ethylphenyl)-1H-pyrazol-4-yl)-1H-indol-3-yl)-4-methoxybut-2-enamide], for which the EC50 is 200 to 1000 nM.

Take `CCC(=O)Nc1c[nH]c2ccc(N3CCN(c4ccccc4)CC3)cc12` [Compound 131, N-(5-(4-phenylpiperazin-1-yl)-1H-indol-3-yl)propionamide]: the EC50 was in the range of 5000 to 100000 nM.

For the molecule `CCc1ccc(-n2cc(-c3ccc4[nH]cc(NC(=O)C(C)O)c4c3)cn2)cc1` (stereo not drawn) [Compound 132, N-(5-(1-(4-ethylphenyl)-1H-pyrazol-4-yl)-1H-indol-3-yl)-2-hydroxypropanamide], the concentration giving a half-maximal response (EC50) was in the range of 200 to 1000 nM.

On to `CCc1ccc(-n2cc(-c3ccc4[nH]cc(NC(=O)C(C)C)c4c3)cn2)cc1` [Compound 133, N-(5-(1-(4-ethylphenyl)-1H-pyrazol-4-yl)-1H-indol-3-yl)isobutyramide], for which the EC50 is 40 to 200 nM.
